Experimental findings from patent US20250179051A1, “PYRIMIDINLY-OXY-QUINOLINE BASED HERBICIDAL COMPOUNDS” (SYNGENTA CROP PROTECTION AG, priority 2022, published 2025) are described below.

SMILES strings stand for the structures.

What all share (assay type): in vivo
Common to all, as to conditions: 250 g/ha, evaluated after 13 days, five-point scale

Assay [1] deals with Amaranthus palmeri (AMAPA). Kind of assay: Post-emergence herbicide glasshouse test. The protocol: (§1) Seeds of a variety of test species are sown in standard soil in pots Amaranthus retoflexus (AMARE), Amaranthus palmeri (AMAPA), Echinochloa crus-galli (ECHCG), Ipomoea hederacea (IPOHE), Setaria faberi (SETFA). After cultivation for one day (pre-emergence) or after 8 days cultivation (post-emergence) under controlled conditions in a glasshouse (at 24/16° C., day/night; 14 hours light; 65% humidity), the plants are sprayed with an aqueous spray solution derived from the formulation of the technical active ingredient in acetone/water (50:50) solution containing 0.5% Tween 20 (polyoxyethelyene sorbitan monolaurate, CAS RN 9005-64-5). Compounds are applied at 250 g/ha unless otherwise stated. The test plants are then grown in a glasshouse under controlled conditions in a glasshouse (at 24/16° C., day/night; 14 hours light; 65% humidity) and watered twice daily. After 13 days for pre and post-emergence, the test is evaluated for the percentage damage caused to the plant. The biological activities are shown in the following table on a five-point scale (5=81-100%; 4=61-80%; 3=41-60%; 2=21-40%; 1=0-20%).

Assay [2] deals with Amaranthus retoflexus (AMARE). As to the kind of experiment: Post-emergence herbicide glasshouse test. As for the experimental part: as §1
In assay [3] the test system is Echinochloa crus-galli (ECHCG). As to the kind of experiment: Post-emergence herbicide glasshouse test. As for the experimental part:
as §1

The subject of assay [4] is Ipomoea hederacea (IPOHE). Kind of assay: Post-emergence herbicide glasshouse test. The protocol: as §1
In assay [5] the test system is Setaria faberi (SETFA). As to the kind of experiment: Post-emergence herbicide glasshouse test. As for the experimental part:
as §1

For assay [6], the system named is Amaranthus palmeri (AMAPA). As to the kind of experiment: Pre-emergence herbicide glasshouse test. As for the experimental part: as §1
For assay [7], the system named is Amaranthus retoflexus (AMARE). Kind of assay: Pre-emergence herbicide glasshouse test. As for the experimental part: as §1
Assay [8] relates to Echinochloa crus-galli (ECHCG). Kind of assay: Pre-emergence herbicide glasshouse test. As for the experimental part: as §1
Assay [9] relates to Ipomoea hederacea (IPOHE). As to the kind of experiment: Pre-emergence herbicide glasshouse test. As for the experimental part: as §1
Assay [10] concerns Setaria faberi (SETFA). As to the kind of experiment: Pre-emergence herbicide glasshouse test. The protocol: as §1

With `O=C(c1ccc(Br)cn1)c1nc(C(F)(F)F)nc2cccc(Oc3ncc(Cl)cn3)c12` [Compound 1.026], the “percentage damage caused to the plant, AMAPA” value in assay [1] is listed as 2 (2=21-40%); in [6], 4 (4=61-80%). The “percentage damage caused to the plant, AMARE” value is 1 (1=0-20%) in assay [2] and 4 (4=61-80%) in assay [7]. Also, the “percentage damage caused to the plant, ECHCG” value in assay [3] and in [8] was 1 (1=0-20%) in each case. Moreover, the “percentage damage caused to the plant, IPOHE” value in [4] and in assay [9] was 1 (1=0-20%) in each case. Moreover, the “percentage damage caused to the plant, SETFA” value with Setaria faberi (SETFA) [5] and in the assay with Setaria faberi (SETFA) [10] was 1 (1=0-20%) throughout.

In the case of `Cn1nc(-c2nc(C(F)(F)F)nc3cccc(Oc4ncc(Cl)cn4)c23)cc1C(F)F` [Compound 1.016, 5-(5-chloropyrimidin-2-yl)oxy-4-[5-(difluoromethyl)-1-methyl-pyrazol-3-yl]-2-(trifluoromethyl)quinazoline], the “percentage damage caused to the plant, AMAPA” value in assay [1] and in [6] was 2 (2=21-40%) throughout. Also, the “percentage damage caused to the plant, AMARE” value in [2] is 2 (2=21-40%); in assay [7], 1 (1=0-20%). Also, the “percentage damage caused to the plant, ECHCG” value in assay [3] and in assay [8] was 1 (1=0-20%) throughout. Moreover, the “percentage damage caused to the plant, IPOHE” value in assay [4] is given as 2 (2=21-40%); in assay [9], 1 (1=0-20%). Also, the “percentage damage caused to the plant, SETFA” value in the assay on Setaria faberi (SETFA) [5] and in the assay with Setaria faberi (SETFA) [10] was 1 (1=0-20%) in each case.

Consider `CC(=NOCC1CC1)c1nc(C(F)(F)F)nc2cccc(Oc3ncc(Cl)cn3)c12` [Compound 1.003], for which the “percentage damage caused to the plant, AMAPA” value in assay [1] and in assay [6] was 1 (1=0-20%) in each case. Moreover, the “percentage damage caused to the plant, AMARE” value in [2] and in assay [7] was 1 (1=0-20%) throughout. In addition, the “percentage damage caused to the plant, ECHCG” value in [3] and in [8] was 1 (1=0-20%) in each case. Moreover, the “percentage damage caused to the plant, IPOHE” value in assay [4] and in assay [9] was 1 (1=0-20%) in each case. The “percentage damage caused to the plant, SETFA” value in the assay with Setaria faberi (SETFA) [5] and in the assay with Setaria faberi (SETFA) [10] was 1 (1=0-20%) in each case.

As for `O=C(c1ccc(Cl)cn1)c1nc(C(F)(F)F)nc2cccc(Oc3ncc(Cl)cn3)c12` [Compound 1.070], the “percentage damage caused to the plant, AMAPA” value in [1] is listed as 1 (1=0-20%); in [6], 5 (5=81-100%). Also, the figures for the “percentage damage caused to the plant, AMARE” value in assay [2] and in assay [7] were 2 (2=21-40%) and 5 (5=81-100%), respectively. The “percentage damage caused to the plant, ECHCG” value in [3] and in assay [8] was 1 (1=0-20%) in each case. The “percentage damage caused to the plant, IPOHE” value in [4] and in assay [9] was 1 (1=0-20%) in each case. Besides, the “percentage damage caused to the plant, SETFA” value in the assay on Setaria faberi (SETFA) [5] and with Setaria faberi (SETFA) [10] was 1 (1=0-20%) in each case.

Turning to `CCO/N=C/CCc1nc(C(F)(F)F)nc2cccc(Oc3ncc(Cl)cn3)c12` [Compound 1.009], the “percentage damage caused to the plant, AMAPA” value in assay [1] and in assay [6] was 5 (5=81-100%) in each case. Besides, the “percentage damage caused to the plant, AMARE” value in assay [2] and in assay [7] was 5 (5=81-100%) each time. The “percentage damage caused to the plant, ECHCG” value in assay [3] and in [8] was 5 (5=81-100%) throughout. Besides, the “percentage damage caused to the plant, IPOHE” value in assay [4] is given as 5 (5=81-100%); in assay [9], 1 (1=0-20%). The “percentage damage caused to the plant, SETFA” value in the assay on Setaria faberi (SETFA) [5] and in the assay on Setaria faberi (SETFA) [10] was 5 (5=81-100%) throughout.

On to `FC(F)(F)c1nc(CCC=NOCC2CC2)c2c(Oc3ncc(Cl)cn3)cccc2n1` [Compound 1.068], for which the “percentage damage caused to the plant, AMAPA” value in assay [1] and in [6] was 5 (5=81-100%) in each case. For the same compound, the “percentage damage caused to the plant, AMARE” value in assay [2] is recorded as 5 (5=81-100%); in assay [7], 4 (4=61-80%). Besides, the “percentage damage caused to the plant, ECHCG” value in [3] is on record as 5 (5=81-100%); in [8], 3 (3=41-60%). For the same compound, the “percentage damage caused to the plant, IPOHE” value in assay [4] and in [9] was 1 (1=0-20%) throughout. Besides, the “percentage damage caused to the plant, SETFA” value in the assay on Setaria faberi (SETFA) [5] and with Setaria faberi (SETFA) [10] was 5 (5=81-100%) in each case.

Turning to `ON=CCCc1nc(C(F)(F)F)nc2cccc(Oc3ncc(Cl)cn3)c12` [Compound 1.021], the “percentage damage caused to the plant, AMAPA” value in [1] and in assay [6] was 4 (4=61-80%) in each case. The “percentage damage caused to the plant, AMARE” value in assay [2] is 5 (5=81-100%); in assay [7], 4 (4=61-80%). The “percentage damage caused to the plant, ECHCG” value in assay [3] is listed as 2 (2=21-40%); in assay [8] it was 3 (3=41-60%). Also, the “percentage damage caused to the plant, IPOHE” value in assay [4] is on record as 2 (2=21-40%); in [9], 1 (1=0-20%). The “percentage damage caused to the plant, SETFA” value with Setaria faberi (SETFA) [5] is 2 (2=21-40%); with Setaria faberi (SETFA) [10], 3 (3=41-60%).

On to `CCNC(=O)CCc1nc(C(F)(F)F)nc2cccc(Oc3ncc(Cl)cn3)c12` [Compound 1.012, 3-[5-(5-chloropyrimidin-2-yl)oxy-2-(trifluoromethyl)quinazolin-4-yl]-N-ethyl-propanamide], for which the results for the “percentage damage caused to the plant, AMAPA” value in assay [1] and in assay [6] were 3 (3=41-60%) and 2 (2=21-40%), respectively. The “percentage damage caused to the plant, AMARE” value was 2 (2=21-40%) in assay [2] and 1 (1=0-20%) in assay [7]. The “percentage damage caused to the plant, ECHCG” value in [3] and in assay [8] was 1 (1=0-20%) each time. Also, the “percentage damage caused to the plant, IPOHE” value in [4] and in assay [9] was 1 (1=0-20%) throughout. The “percentage damage caused to the plant, SETFA” value in the assay with Setaria faberi (SETFA) [5] and in the assay on Setaria faberi (SETFA) [10] was 1 (1=0-20%) throughout.

Regarding `CCO/N=C\CCc1nc(C(F)(F)F)nc2cccc(Oc3ncc(Cl)cn3)c12` [Compound 1.047], the “percentage damage caused to the plant, AMAPA” value in assay [1] and in assay [6] was 4 (4=61-80%) in each case. The “percentage damage caused to the plant, AMARE” value is 5 (5=81-100%) in assay [2] and 4 (4=61-80%) in [7]. The “percentage damage caused to the plant, ECHCG” value in [3] and in assay [8] was 5 (5=81-100%) in each case. The “percentage damage caused to the plant, IPOHE” value in assay [4] is given as 5 (5=81-100%); in assay [9], 2 (2=21-40%). Also, the “percentage damage caused to the plant, SETFA” value in the assay on Setaria faberi (SETFA) [5] and in the assay on Setaria faberi (SETFA) [10] was 5 (5=81-100%) throughout.

As for `CON=C(C)c1nc(C(F)(F)F)nc2cccc(Oc3ncc(Cl)cn3)c12` [Compound 1.066], the “percentage damage caused to the plant, AMAPA” value was 2 (2=21-40%) in assay [1] and 4 (4=61-80%) in [6]. The “percentage damage caused to the plant, AMARE” value in assay [2] and in assay [7] was 1 (1=0-20%) each time. The “percentage damage caused to the plant, ECHCG” value in assay [3] and in [8] was 1 (1=0-20%) each time. For the same compound, the “percentage damage caused to the plant, IPOHE” value in assay [4] and in [9] was 1 (1=0-20%) throughout. Further, the “percentage damage caused to the plant, SETFA” value with Setaria faberi (SETFA) [5] and with Setaria faberi (SETFA) [10] was 1 (1=0-20%) in each case.

As to `O=C(c1ccccn1)c1nc(C(F)(F)F)nc2cccc(Oc3ncc(Cl)cn3)c12` [Compound 1.029, [5-(5-chloropyrimidin-2-yl)oxy-2-(trifluoromethyl)quinazolin-4-yl]-(2-pyridyl) methanone], the “percentage damage caused to the plant, AMAPA” value in [1] and in assay [6] was 1 (1=0-20%) each time. For the same compound, the “percentage damage caused to the plant, AMARE” value in assay [2] and in assay [7] was 1 (1=0-20%) throughout. Besides, the “percentage damage caused to the plant, ECHCG” value in assay [3] and in assay [8] was 1 (1=0-20%) throughout. For the same compound, the “percentage damage caused to the plant, IPOHE” value in [4] and in [9] was 1 (1=0-20%) each time. Also, the “percentage damage caused to the plant, SETFA” value in the assay with Setaria faberi (SETFA) [5] and with Setaria faberi (SETFA) [10] was 1 (1=0-20%) in each case.
